14 compounds from US9670227B2, “Thienopyrimidine derivatives, a process for their preparation and pharmaceutical compositions containing them” (LES LABORATOIRES SERVIER, priority 2013, dated 2017) can be followed below.

The structures appear in SMILES notation. Read-outs that look alike come from different tables or passages of the source.

The subject of test [1] is H929 multiple myeloma tumour line. Nature of the test: In vitro cytotoxicity, Microculture Tetrazolium Assay. It is filed as cell-based. Particulars: read-out: IC50 (μM) MTT H929. The procedure:
The cytotoxicity studies were carried out on the H929 multiple myeloma tumour line.
The cells are distributed onto microplates and exposed to the test compounds for 48 hours.

The target of a further test is Mcl-1 protein (UniProtKB primary accession number: Q07820) (Homo sapiens, UniProt Q07820). Nature of the test: Inhibition of Mcl-1 by fluorescence polarisation, Method 1. It is filed as binding. Particulars: for percentage fluorescence polarisation inhibition (Mcl-1 FP), partial inhibitors: test compound at 10 uM. In a few lines: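 FP competition, 11-point compound titration in 5% final DMSO; protein and labelled probe at 5 nM and 1 nM final in HEPES/NaCl/Tween 20 buffer, pH 7.4.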

[2] abbreviates: fluorescence polarisation test, Method 1, or Method 2 where the value is underlined (underlining not visible), read-out: IC50 (M) Mcl-1 FP.
Where [3] appears, read: Homo sapiens, NCI-H929, 48 h, H929 cells, 48 hours exposure, MTT.
Setting [4] is: fluorescence polarisation test, Method 2 values are underlined in the patent (underlining not visible here), read-out: IC50 (M) Mcl-1 FP.
[5] abbreviates: fluorescence polarisation, Method 1, or Method 2, read-out: IC50 (M) Mcl-1 FP.
Where [6] appears, read: Method 1, or Method 2 where the value is underlined (underlining not visible).

Mcl-1 protein, sequence (Q07820 whole entry): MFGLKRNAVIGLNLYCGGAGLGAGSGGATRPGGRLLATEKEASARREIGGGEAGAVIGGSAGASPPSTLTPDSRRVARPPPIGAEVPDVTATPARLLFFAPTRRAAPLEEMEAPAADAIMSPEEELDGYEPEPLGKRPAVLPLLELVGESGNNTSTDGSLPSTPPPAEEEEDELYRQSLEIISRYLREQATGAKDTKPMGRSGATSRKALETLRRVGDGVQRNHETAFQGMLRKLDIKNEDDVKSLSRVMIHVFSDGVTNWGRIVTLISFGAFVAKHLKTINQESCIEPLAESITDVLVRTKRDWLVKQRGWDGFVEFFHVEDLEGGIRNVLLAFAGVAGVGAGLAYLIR

Regarding `COCCOc1ccccc1CC(Oc1ncnc2sc(-c3ccc(F)c(OC)c3)c(-c3ccc(OCCN4CCN(C)CC4)c(Cl)c3C)c12)C(=O)O` [Example 387, (2R)-2-{[(5Sa)-5-{3-chloro-2-methyl-4-[2-(4-methylpiperazin-1-yl)ethoxy]phenyl}-6-(4-fluoro-3-methoxyphenyl)thieno[2,3-d]pyrimidin-4-yl]oxy}-3-[2-(2-methoxyethoxy)phenyl]propanoic acid], the IC50 (commonly the concentration that gives 50% inhibition) in test [1] (Homo sapiens, NCI-H929, 48 h) is 0.202 µM; against Mcl-1 protein (IC50 (M) Mcl-1 FP, fluorescence polarisation test, Method 2 values are underlined in the patent (underlining not visible here)), 4e-09 M.
On to `COc1ccccc1-c1nccc(COc2ccccc2C[C@@H](Oc2ncnc3sc(-c4ccc(F)cc4)c(-c4ccc(OCCN5CCN(C)CC5)c(Cl)c4OC)c23)C(=O)O)n1` [Example 837, (2R)-2-{[5-{3-chloro-2-methoxy-4-[2-(4-methylpiperazin-1-yl)ethoxy]phenyl}-6-(4-fluorophenyl)thieno[2,3-d]pyrimidin-4-yl]oxy}-3-(2-{[2-(2-methoxyphenyl)pyrimidin-4-yl]methoxy}phenyl)propanoic acid], for which the IC50 in test [1] (Homo sapiens, NCI-H929, 48 h, H929 cells, 48 hours exposure, cell viability) was found to be 0.003 µM; at Mcl-1 protein (setting [2]), 2.35e-09 M.
With `COc1nccc(COc2ccccc2CC(Oc2ncnc3sc(-c4ccco4)c(-c4ccc(OCCN5CCN(C)CC5)c(Cl)c4C)c23)C(=O)O)n1` [Example 255, (2R)-2-{[(5Sa)-5-{3-chloro-2-methyl-4-[2-(4-methylpiperazin-1-yl)ethoxy]phenyl}-6-(furan-2-yl)thieno[2,3-d]pyrimidin-4-yl]oxy}-3-{2-[(2-methoxypyrimidin-4-yl)methoxy]phenyl}propanoic acid], the IC50 in test [1] (setting [3]) came to 0.018 µM; at Mcl-1 protein (setting [4]) it was 7.5e-09 M.
Taken in the same sequence, the figures for `Cc1c(-c2c(-c3ccc(F)cc3)sc3ncnc(OC(Cc4ccccc4OCc4ccnn4CCCC(F)(F)F)C(=O)O)c23)ccc(OCCN2CCN(C)CC2)c1Cl` [Example 84, (2R)-2-{[(5Sa)-5-{3-chloro-2-methyl-4-[2-(4-methylpiperazin-1-yl)ethoxy]phenyl}-6-(4-fluorophenyl)thieno[2,3-d]pyrimidin-4-yl]oxy}-3-(2-{[1-(4,4,4-trifluorobutyl)-1H-pyrazol-5-yl]methoxy}phenyl)propanoic acid] were 0.018 µM and 3.8e-09 M.
With `CCCCn1nccc1COc1ccccc1CC(Oc1ncnc2sc(-c3ccc(CC)cc3)c(-c3ccc(OCCN4CCN(C)CC4)c(Cl)c3C)c12)C(=O)O` [Example 601, (2R)-3-{2-[(1-butyl-1H-pyrazol-5-yl)methoxy]phenyl}-2-{[(5Sa)-5-{3-chloro-2-methyl-4-[2-(4-methylpiperazin-1-yl)ethoxy]phenyl}-6-(4-ethylphenyl)thieno[2,3-d]pyrimidin-4-yl]oxy}propanoic acid], the values for the IC50 (in test [1] (setting [3]); on Mcl-1 protein (setting [5])) were 0.133 µM and 1.2e-08 M, respectively.
Consider `CCCNC(=O)COc1ccccc1CC(Oc1ncnc2sc(-c3ccc(F)o3)c(-c3ccc(OCCN4CCN(C)CC4)c(Cl)c3C)c12)C(=O)O` [Example 154, (2R)-2-{[(5Sa)-5-{3-chloro-2-methyl-4-[2-(4-methylpiperazin-1-yl)ethoxy]phenyl}-6-(5-fluorofuran-2-yl)thieno[2,3-d]pyrimidin-4-yl]oxy}-3-{2-[2-oxo-2-(propylamino)ethoxy]phenyl}propanoic acid], for which the IC50 turned out to be 0.1 µM in test [1] (setting [3]) and 6.6e-09 M on Mcl-1 protein (setting [4]).
Consider `Cc1c(-c2c(-c3ccco3)sc3ncnc(O[C@H](Cc4ccccc4OCc4ccco4)C(=O)O)c23)ccc(OCCN2CCN(C)CC2)c1Cl` [Example 244, (2R)-2-{[(5Sa)-5-{3-chloro-2-methyl-4-[2-(4-methylpiperazin-1-yl)ethoxy]phenyl}-6-(furan-2-yl)thieno[2,3-d]pyrimidin-4-yl]oxy}-3-[2-(furan-2-ylmethoxy)phenyl]propanoic acid], for which the IC50 worked out at 0.205 µM in test [1] (H929 cells, 48 hours exposure, MTT) and 8.6e-09 M at Mcl-1 protein (setting [4]).
`Cc1c(-c2c(-c3ccco3)sc3ncnc(OC(Cc4ccccc4OCc4ccnn4CC(F)(F)F)C(=O)O)c23)ccc(OCCN2CCN(C)CC2)c1Cl` [Example 265, (2R)-2-{[(5Sa)-5-{3-chloro-2-methyl-4-[2-(4-methylpiperazin-1-yl)ethoxy]phenyl}-6-(furan-2-yl)thieno[2,3-d]pyrimidin-4-yl]oxy}-3-(2-{[1-(2,2,2-trifluoroethyl)-1H-pyrazol-5-yl]methoxy}phenyl)propanoic acid]: the IC50 in test [1] (setting [3]) amounted to 0.016 µM.
Regarding `Cc1c(-c2c(-c3ccc(F)o3)sc3ncnc(OC(Cc4ccccc4OCc4ccnn4CC(F)(F)F)C(=O)O)c23)ccc(OCCN2CCN(C)CC2)c1Cl` [Example 185, (2R)-2-{[(5Sa)-5-{3-chloro-2-methyl-4-[2-(4-methylpiperazin-1-yl)ethoxy]phenyl}-6-(5-fluorofuran-2-yl)thieno[2,3-d]pyrimidin-4-yl]oxy}-3-(2-{[1-(2,2,2-trifluoroethyl)-1H-pyrazol-5-yl]methoxy}phenyl)propanoic acid], the IC50 in test [1] (Homo sapiens, NCI-H929, 48 h) came to 0.012 µM.
`CCCCCCCCOC(=O)[C@@H](Cc1ccccc1OCc1ccnc(-c2ccccc2OC)n1)Oc1ncnc2sc(-c3ccc(F)cc3)c(-c3ccc(OCCN4CCN(C)CC4)c(Cl)c3C)c12` [Example 815, octyl (2R)-2-{[(5Sa)-5-{3-chloro-2-methyl-4-[2-(4-methylpiperazin-1-yl)ethoxy]phenyl}-6-(4-fluorophenyl)thieno[2,3-d]pyrimidin-4-yl]oxy}-3-(2-{[2-(2-methoxyphenyl)pyrimidin-4-yl]methoxy}phenyl)propanoate]: at Mcl-1 protein (setting [6]), the “percentage fluorescence polarisation inhibition (Mcl-1 FP), partial inhibitors” value was determined as 19.95% @ 10 uM.
In the case of `COc1ccccc1-c1nccc(COc2ccccc2CC(Oc2ncnc3sc(-c4ccc(OCCc5ccccc5)cc4)c(-c4ccc(OCCN5CCN(C)CC5)c(Cl)c4C)c23)C(=O)O)n1` (single isomer, unassigned) [Example 765], the IC50 on Mcl-1 protein (setting [5]) amounted to 6.58e-07 M.
Consider `COc1ccccc1-c1nccc(COc2ccccc2CC(Oc2ncnc3sc(-c4ccc(F)cc4)c(-c4ccc(OCCN5CCN(C)CC5)c(Cl)c4C)c23)C(=O)OC(C)OC(C)=O)n1` [Example 858, 1-(acetyloxy)ethyl (2R)-2-{[(5Sa)-5-{3-chloro-2-methyl-4-[2-(4-methylpiperazin-1-yl)ethoxy]phenyl}-6-(4-fluorophenyl)thieno[2,3-d]pyrimidin-4-yl]oxy}-3-(2-{[2-(2-methoxyphenyl)pyrimidin-4-yl]methoxy}phenyl)propanoate], for which the IC50 at Mcl-1 protein (setting [2]) was 2.11e-07 M.
For `Cc1c(-c2c(-c3ccc(F)cc3)sc3ncnc(OC(Cc4ccccc4OCc4ccccn4)C(=O)O)c23)ccc(OCCN2CCN(C)CC2)c1Cl` [Example 14, (2R)-2-{[(5Sa)-5-{3-chloro-2-methyl-4-[2-(4-methylpiperazin-1-yl)ethoxy]phenyl}-6-(4-fluorophenyl)thieno[2,3-d]pyrimidin-4-yl]oxy}-3-[2-(pyridin-2-ylmethoxy)phenyl]propanoic acid], at Mcl-1 protein (setting [4]), the IC50 was found to be 1.3e-08 M.
`COc1ccccc1-c1nccc(COc2ccccc2C[C@@H](Oc2ncnc3sc(-c4ccc(F)cc4)c(-c4ccc(OC)c(Cl)c4C)c23)C(=O)OCC(=O)N(C)C)n1` [Example 848, 2-(dimethylamino)-2-oxoethyl (2R)-2-{[(5Sa)-5-(3-chloro-4-methoxy-2-methylphenyl)-6-(4-fluorophenyl)thieno[2,3-d]pyrimidin-4-yl]oxy}-3-(2-{[2-(2-methoxyphenyl)pyrimidin-4-yl]methoxy}phenyl)propanoate]: the “percentage fluorescence polarisation inhibition (Mcl-1 FP), partial inhibitors” value on Mcl-1 protein (setting [6]) is 46.7% @ 10 uM.
